Reference: patent US10227331B2 (priority 2015, dated 2019)

Tests used:
[1] = molecular target: IMP-1 (Serratia marcescens, UniProt P52699); test: biochemical; type: biochemical; conditions: CCF2-FA substrate, 2 hours at 25° C; read-out: IMP-1 IC50
Procedure, shortened: (§1)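 Fluorescence assay, CCF2-FA substrate (cephalosporin core linking 7-hydroxycoumarin to fluorescein); inhibitor + MBL + substrate, 2 h, 25° C. IC50 by 4-parameter fit, semi-log plot.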

[2] = molecular target: NDM-1 (Klebsiella pneumoniae, UniProt C7C422); test: biochemical; type: biochemical; conditions: CCF2-FA substrate, 2 hours at 25° C; read-out: NDM-1 IC50
NDM-1, sequence (C7C422 whole entry, looked up, species assumed): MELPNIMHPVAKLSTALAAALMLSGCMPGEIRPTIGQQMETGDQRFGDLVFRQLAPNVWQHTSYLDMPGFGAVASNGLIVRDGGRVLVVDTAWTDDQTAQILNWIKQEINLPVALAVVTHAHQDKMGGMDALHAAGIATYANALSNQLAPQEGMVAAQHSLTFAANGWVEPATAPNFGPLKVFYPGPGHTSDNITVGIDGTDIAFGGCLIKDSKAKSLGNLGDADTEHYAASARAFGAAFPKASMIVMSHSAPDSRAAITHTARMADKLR
Procedure, shortened: as §1

[3] = molecular target: VIM-1 (Pseudomonas aeruginosa (strain ATCC 15692 / DSM 22644 / CIP 104116 / JCM 14847 / LMG 12228 / 1C / PRS 101 / PAO1), UniProt A0A0F7KYQ8); test: biochemical; conditions: CCF2-FA substrate, 2 hours at 25° C
Procedure, shortened: as §1

[4] = system: Escherichia coli expressing NDM-1 (CLB30005, CLB30016); type: cell-based; conditions: with imipenem 1 μg/ml, 95% inhibition of bacterial growth; for Escherichia coli MITC95: NDM-1 (CLB30016)
Procedure, shortened: (§2)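 Colonies from overnight 35 °C blood-agar cultures were suspended in saline, diluted 1:100 into 1.1× CAMHB and exposed to test compound with or without imipenem at 1 μg/ml. After 22–24 h at 35 °C, absorbance was read to find the concentration restoring imipenem susceptibility.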

[5] = system: Klebsiella pneumoniae expressing VIM-1 (IHMA599644); type: cell-based; conditions: with imipenem 1 μg/ml, 95% inhibition of bacterial growth; for Klebsiella pneumoniae MITC95: VIM-1 (IHMA599644)
Procedure, shortened: as §2

[6] = system: Serratia marcescens expressing IMP-1 (CL5741); type: cell-based; conditions: with imipenem 1 μg/ml, 95% inhibition of bacterial growth; for Serratia marcescens MITC95: IMP-1 (CL5741)
Procedure, shortened: as §2

[7] = system: P. aeruginosa expressing IMP-1, efflux+ (MB9798); type: cell-based, Pseudomonas aeruginosa; conditions: for P. aeruginosa expressing IMP-1, efflux+ (MB9798) MITC95: imipenem at 2 μg/mL, in the presence of a class A, C, D serine β-lactamase inhibitor closely related to relebactam; for Efflux ratio: ratio MITC95 PA_9798/MITC95 PA_9799
Excerpt: (§3) The strain background is Pseudomonas aeruginosa PAO1.

[8] = system: P. aeruginosa expressing IMP-1, efflux− (MB9799); test: Efflux: concentration of MBL inhibitor which restores susceptibility to imipenem; type: cell-based, Pseudomonas aeruginosa; conditions: imipenem at 2 μg/mL, in the presence of a class A, C, D serine β-lactamase inhibitor closely related to relebactam
Excerpt: as §3

IMP-1, sequence (P52699 whole entry, looked up, species assumed): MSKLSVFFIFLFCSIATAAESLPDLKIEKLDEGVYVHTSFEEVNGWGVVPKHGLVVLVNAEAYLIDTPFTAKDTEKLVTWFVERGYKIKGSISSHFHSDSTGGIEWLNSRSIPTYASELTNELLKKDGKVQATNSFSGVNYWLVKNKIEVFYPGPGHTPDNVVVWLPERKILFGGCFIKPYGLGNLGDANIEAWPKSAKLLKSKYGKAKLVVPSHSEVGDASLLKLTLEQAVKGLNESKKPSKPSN

| SMILES | IC50 [1] [nM] | IC50 [2] [nM] | IC50 [3] [nM] | Escherichia coli expressing NDM-1 (CLB30016) MITC95 [4] [µM] | Klebsiella pneumoniae expressing VIM-1 (IHMA599644) MITC95 [5] [µM] | Serratia marcescens expressing IMP-1 (CL5741) MITC95 [6] [µM] | P. aeruginosa expressing IMP-1, efflux+ (MB9798) MITC95 [7] [µM] | Efflux ratio [7] | P. aeruginosa expressing IMP-1, efflux− (MB9799) MITC95 [8] [µM] | Escherichia coli MITC95 [4] [µM] | Klebsiella pneumoniae MITC95 [5] [µM] | Serratia marcescens MITC95 [6] [µM] |
| --- | --- | --- | --- | --- | --- | --- | --- | --- | --- | --- | --- | --- |
| NS(=O)(=O)c1c(S(=O)(=O)C2CNC2)ccc([C@H]2CC[C@H](N)CC2)c1-c1nnn[nH]1 [Example 212, 3-((1r,4r)-4-aminocyclohexyl)-6-(azetidin-3-ylsulfonyl)-2-(1H-tetrazol-5-yl) benzenesulfonamide] | 30.2 | 11.3 | 0.864 | 0.7813 | 1.563 | 1.563 | 1.563 | 2.00 | 0.7813 |  |  |  |
| Nc1nc2c(-c3ccc(S(=O)(=O)C4CNC4)c(S(N)(=O)=O)c3-c3nn[nH]n3)ccc(C(F)(F)F)c2s1 [Example 34, 3-(2-amino-7-(trifluoromethyl)benzo[d]thiazol-4-yl)-6-(azetidin-3-ylsulfonyl)-2-(2H-tetrazol-5-yl)benzenesulfonamide] | 0.229 | 0.0713 | 0.175 | 0.7813 | 1.563 | 0.7813 | 6.25 | 8.00 | 0.7813 |  |  |  |
| N#Cc1cc(-c2ccc(S(=O)(=O)C3CNC3)c(S(N)(=O)=O)c2-c2nnn[nH]2)c2[nH]c(N)nc2c1 [Example 261, 3-(2-amino-5-cyano-1H-benzo[d]imidazol-7-yl)-6-(azetidin-3-ylsulfonyl)-2-(1H-tetrazol-5-yl) benzenesulfonamide] | 1.15 | 0.4 | 0.734 |  |  |  | 6.25 | 1.00 | 6.25 | 6.25 | 12.5 | 6.25 |
| C[C@H](CN)S(=O)(=O)c1ccc(-c2cccc3nc(N)[nH]c23)c(-c2nn[nH]n2)c1S(N)(=O)=O [Example 277, 3-(2-amino-3H-benzo[d]imidazol-4-yl)-6-((R)-1-aminopropan-2-ylsulfonyl)-2-(2H-tetrazol-5-yl)benzenesulfonamide] | 1.37 | 0.527 | 0.362 |  |  |  | 1.563 | 2.00 | 0.7813 | 0.3906 | 1.563 | 0.7813 |
| NS(=O)(=O)c1c(S(=O)(=O)C2CNC2)ccc(-c2cccc3[nH]ncc23)c1-c1nnn[nH]1.O=C(O)C(F)(F)F [Example 100, 3-((4-(1H-indazol-4-yl)-2-sulfamoyl-3-(1H-tetrazol-5-yl)phenyl)sulfonyl)azetidin-1-ium 2,2,2-trifluoroacetate] | 1.61 | 0.358 | 0.331 | 6.25 | 3.125 | 3.125 | 6.25 | 4.00 | 1.563 |  |  |  |
| Cn1c(N)nc2c(-c3ccc(S(=O)(=O)C[C@H](O)CN)c(S(N)(=O)=O)c3-c3nn[nH]n3)cccc21 [Example 362, (R)-3-(2-amino-1-methyl-1H-benzo[d]imidazol-4-yl)-6-((3-amino-2-hydroxypropyl)sulfonyl)-2-(2H-tetrazol-5-yl) benzenesulfonamide] | 0.408 | 0.295 | 0.605 |  |  |  | 0.7813 | 1.00 | 0.7813 | 0.3906 | 1.563 | 0.7813 |
| Cc1nc2c(-c3ccc(S(=O)(=O)CCN)c(S(N)(=O)=O)c3-c3nn[nH]n3)cccc2[nH]1 [Example 331, 6-((2-aminoethyl)sulfonyl)-3-(2-methyl-1H-benzo[d]imidazol-4-yl)-2-(2H-tetrazol-5-yl) benzenesulfonamide] | 0.302 | 0.165 | 0.183 |  |  |  | 1.563 | 1.00 | 1.563 | 3.125 | 6.25 | 1.563 |
| NCCS(=O)(=O)c1ccc(-c2cccc(-c3c[nH]c(N)n3)c2)c(-c2nnn[nH]2)c1S(N)(=O)=O [Example 346, 3′-(2-Amino-1H-imidazol-4-yl)-4-((2-aminoethyl)sulfonyl)-2-(1H-tetrazol-5-yl)-[1,1′-biphenyl]-3-sulfonamide] | 1.97 | 0.518 | 0.931 |  |  |  | 6.25 | 8.00 | 0.7813 | 0.3906 | 1.563 | 1.563 |
| CC(=O)Nc1ccc(-c2ccc(S(=O)(=O)CCN)c(S(N)(=O)=O)c2-c2nnn[nH]2)cn1.O=C(O)C(F)(F)F [Example 135, 2-((4-(6-acetamidopyridin-3-yl)-2-sulfamoyl-3-(1H-tetrazol-5-yl)phenyl)sulfonyl)ethanaminium 2,2,2-trifluoroacetate] | 1.65 | 0.265 | 1.22 | 0.7813 | 6.25 | 3.125 | 3.125 | 2.00 | 1.563 |  |  |  |
| Nc1cc2cccc(-c3ccc(S(=O)(=O)C4CNC4)c(S(N)(=O)=O)c3-c3nn[nH]n3)c2cn1 [Example 35, 3-(3-aminoisoquinolin-8-yl)-6-(azetidin-3-ylsulfonyl)-2-(2H-tetrazol-5-yl)benzenesulfonamide] | 0.503 | 0.0695 | 0.243 | 1.563 | 6.25 | 1.563 | 1.563 | 1.00 | 1.563 |  |  |  |
| CS(=O)(=O)c1ccc(-c2ccc(N)nc2)c(-c2nn[nH]n2)c1S(N)(=O)=O [Example 237, 3-(6-Aminopyridin-3-yl)-6-(methylsulfonyl)-2-(2H-tetrazol-5-yl)benzenesulfonamide] | 0.63 | 5.81 | 0.754 | 0.3906 | 6.25 | 1.563 | 25 | 15.99 | 1.563 |  |  |  |
